# Values quoted from earlier work as cited in patent publication US9277761B2, “Nutrition trace element composition” (priority 2003, dated 2016).
# Read-outs that look alike come from different tables or passages of the source.
# Columns and labels:
# [1] = cited from earlier work
# humans [2] = settings: 12 g/d for 2 days, child; cited from earlier work
# humans [3] = settings: cited from earlier work
# mice = settings: cited from earlier work
# [4] = tested on: various experimental animals; settings: cited from earlier work
# rabbits = settings: cited from earlier work
# [5] = oral administration of 1 mg of sodium selenite; cited from earlier work
# rats = settings: intravenous administration; cited from earlier work
# guinea pigs = settings: peroral administration; cited from earlier work
compound,measurement,setting,value
O=[75Se]([O-])[O-].[Na+].[Na+] [[^75Se] sodium selenite],Dose excreted,"[1]; intravenous, first 24 hours",12%
same,Additional portion of dose eliminated in second phase,[1]; intravenous,40%
same,Biological half-life of second phase,[1]; intravenous,20 days
same,Half-life of the third phase,[1]; intravenous,115 days
same,Absorbed dose excreted through the urine,"[1]; oral 10 μg, first two weeks",14-20%
same,"Half-life of total body retention, 1st phase",[1]; oral 10 μg,0.7 to 1.2 days
same,"Half-life of total body retention, 2nd phase",[1]; oral 10 μg,7 to 11 days
same,"Half-life of total body retention, 3rd phase",[1]; oral 10 μg,96 to 144 days
[Zn] [elementary zinc],Symptoms after ingestion,humans [2],"recklessness, lethargy and dysgraphia"
O=[Se](O)O [selenous acid],Outcome of acute selenium poisoning,"humans [3]; two children, 10-15 ml weapon-cleaning agent with approx. 1.8% selenous acid, roughly 110 mg selenium",died
O=[Se](O)O [sodium selenite],LD50,mice; intravenous administration,2.2 mg of selenium/kg BW
same,LD50,mice; peroral administration,3.2-3.5 mg/kg BW
same,Acute toxicity,[4],1-5 mg of selenium per kg BW
same,LD50,rabbits; intravenous administration,0.9 mg/kg BW
same,LD50,rabbits; peroral administration,2.25 mg/kg BW
same,"Absorption, average portion",[5],62±14%
same,Indications of selenium poisoning,"humans [3]; four persons, 2 mg selenium a day for 20-40 days",did not result in any indications of selenium poisoning
same,Chronic toxicity,humans [3]; in vivo,3-7 mg of selenium/day
same,Whole blood concentration at which first symptoms of poisoning manifest,humans [3]; in vivo,1.05 mg of selenium/l whole blood
same,Dosage seen as harmless,humans [3]; long-term use (longer than three months),up to 550 μg of selenium a day
same,Symptoms of selenium poisoning,"humans [3]; peroral 50 μg selenium per kg bodyweight over one year, patients with neuronal ceroid lipofuscinosis",no symptoms of selenium poisoning were observed
same,Symptoms of chronic poisoning,"humans [3]; person, 2 mg sodium selenite (900 μg selenium) daily for more than two years",fingernails were thickened and brittle
same,Symptoms of poisoning,"humans [3]; person, approx. 27 mg selenium a day for approx. two months","suffered from lassitude, nausea, vomiting, depression, bad breath, hair loss and nails that fell off"
same,LD50,rats,5.7 mg/kg BW
same,LD50,guinea pigs,2.3 mg/kg BW
